The results in this text go back to patent US20100311714A1, “1H-IMIDAZO[4,5-c]QUINOLINONE COMPOUNDS” (priority 2009, published 2010).

Each structure is given as a SMILES string. ≈ marks a conversion by molar mass, not a printed value.

Series [1] in a line: High-throughput equilibrium solubility at pH 6.8. The format is physicochemical. Particulars: pH 6.8, aqueous buffer, thermodynamic from solid; read-out: HT-Eq Sol/pH 6.8. The method, boiled down:
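Solubility was measured at pH 6.8 following the cited Zhou et al. (2007) procedure.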

Series [2] in a line: Parallel Artificial Membrane Permeability Assay (PAMPA) at pH 6.8. The format is physicochemical. The method, boiled down: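 PAMPA permeability measured at pH 6.8 following the Wohnsland and Faller method; value reported as log Pe.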
For orientation: In PAMPA a lipid-coated filter parts donor from acceptor wells.

The next series addresses T1, PI3K alfa (Homo sapiens, UniProt P42336).
T1 construct: His tag (C); made in house; host or cells: baculovirus BV1075; Tn5 (Trichoplusia ni) or TiniPro insect cells
The experiment in a line: PI3K alpha kinase assay (Kinase-Glo luminescence). The note with it: read-out: PI3Kalfa/IC50. In kind it is biochemical. The method, boiled down: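 Kinase-Glo luminescence read of ATP remaining after PI3Kα (10 nM) phosphorylates 10 μg/mL bovine liver phosphatidylinositol with 1 μM ATP, pH 7.5 TRIS, 3 mM MgCl2, 0.05% CHAPS; 60 min at room temperature. IC50 from 4-parameter logistic fit over 8 concentrations.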

A further series deals with T2, PI3K delta (Homo sapiens, UniProt O00329).
T2 construct: for the full-length p110-d subunit are generated and fused by overlapping PCR; His tag (C); made in house; host or cells: baculovirus BV1060; Tn5 (Trichoplusia ni) or TiniPro insect cells
T2 sequence (O00329 with tags, fused parts or gaps limits assumed): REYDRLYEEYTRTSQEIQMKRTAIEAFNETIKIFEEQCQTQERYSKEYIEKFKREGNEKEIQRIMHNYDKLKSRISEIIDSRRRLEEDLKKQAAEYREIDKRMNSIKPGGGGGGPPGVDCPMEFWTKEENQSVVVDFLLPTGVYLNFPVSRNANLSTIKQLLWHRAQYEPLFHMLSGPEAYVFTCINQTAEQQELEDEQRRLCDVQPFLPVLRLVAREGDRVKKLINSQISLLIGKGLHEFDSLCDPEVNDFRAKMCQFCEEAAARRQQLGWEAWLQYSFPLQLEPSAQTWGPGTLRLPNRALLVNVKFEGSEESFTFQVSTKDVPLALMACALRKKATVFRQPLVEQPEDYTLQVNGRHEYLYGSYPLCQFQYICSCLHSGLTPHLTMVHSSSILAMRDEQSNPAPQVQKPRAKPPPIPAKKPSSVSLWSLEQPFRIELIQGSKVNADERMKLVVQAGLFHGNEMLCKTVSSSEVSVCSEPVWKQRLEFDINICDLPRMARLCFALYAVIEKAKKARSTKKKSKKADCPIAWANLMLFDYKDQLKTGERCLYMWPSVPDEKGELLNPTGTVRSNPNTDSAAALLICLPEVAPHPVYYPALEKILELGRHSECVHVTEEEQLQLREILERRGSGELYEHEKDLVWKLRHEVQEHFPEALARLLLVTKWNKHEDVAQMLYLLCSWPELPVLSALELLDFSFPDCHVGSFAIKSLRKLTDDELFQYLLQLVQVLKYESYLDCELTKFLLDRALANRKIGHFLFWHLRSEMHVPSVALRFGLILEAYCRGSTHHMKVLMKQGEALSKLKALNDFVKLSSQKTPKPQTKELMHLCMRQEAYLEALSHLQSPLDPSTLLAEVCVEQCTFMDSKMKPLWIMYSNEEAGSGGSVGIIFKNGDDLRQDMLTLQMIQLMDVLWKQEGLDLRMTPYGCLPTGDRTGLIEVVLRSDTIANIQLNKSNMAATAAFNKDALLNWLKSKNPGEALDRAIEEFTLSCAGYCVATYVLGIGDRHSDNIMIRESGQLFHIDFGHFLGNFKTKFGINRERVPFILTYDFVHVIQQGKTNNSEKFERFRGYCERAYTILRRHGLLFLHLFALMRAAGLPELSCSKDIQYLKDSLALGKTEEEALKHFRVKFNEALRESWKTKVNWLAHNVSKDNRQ
The experiment in a line: PI3K delta kinase assay (Kinase-Glo luminescence). Particulars: read-out: PI3Kdelta/IC50. The format is biochemical. The method, boiled down:
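Kinase-Glo ATP-depletion luminescence using 10 nM p85(iSH2)-linker-p110δ full-length His-tag construct from insect cells, with 1 μM ATP and 10 μg/mL phosphatidylinositol in 10 mM Tris pH 7.5, 3 mM MgCl2, 50 mM NaCl, 0.05% CHAPS, 1 mM DTT. 60 min room temperature; IC50 from 4-parameter logistic fit over 8 concentrations.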
In general terms: Kinase-Glo measures the ATP left after a reaction by luminescence.

T1 sequence (P42336 with tags, fused parts or gaps limits assumed): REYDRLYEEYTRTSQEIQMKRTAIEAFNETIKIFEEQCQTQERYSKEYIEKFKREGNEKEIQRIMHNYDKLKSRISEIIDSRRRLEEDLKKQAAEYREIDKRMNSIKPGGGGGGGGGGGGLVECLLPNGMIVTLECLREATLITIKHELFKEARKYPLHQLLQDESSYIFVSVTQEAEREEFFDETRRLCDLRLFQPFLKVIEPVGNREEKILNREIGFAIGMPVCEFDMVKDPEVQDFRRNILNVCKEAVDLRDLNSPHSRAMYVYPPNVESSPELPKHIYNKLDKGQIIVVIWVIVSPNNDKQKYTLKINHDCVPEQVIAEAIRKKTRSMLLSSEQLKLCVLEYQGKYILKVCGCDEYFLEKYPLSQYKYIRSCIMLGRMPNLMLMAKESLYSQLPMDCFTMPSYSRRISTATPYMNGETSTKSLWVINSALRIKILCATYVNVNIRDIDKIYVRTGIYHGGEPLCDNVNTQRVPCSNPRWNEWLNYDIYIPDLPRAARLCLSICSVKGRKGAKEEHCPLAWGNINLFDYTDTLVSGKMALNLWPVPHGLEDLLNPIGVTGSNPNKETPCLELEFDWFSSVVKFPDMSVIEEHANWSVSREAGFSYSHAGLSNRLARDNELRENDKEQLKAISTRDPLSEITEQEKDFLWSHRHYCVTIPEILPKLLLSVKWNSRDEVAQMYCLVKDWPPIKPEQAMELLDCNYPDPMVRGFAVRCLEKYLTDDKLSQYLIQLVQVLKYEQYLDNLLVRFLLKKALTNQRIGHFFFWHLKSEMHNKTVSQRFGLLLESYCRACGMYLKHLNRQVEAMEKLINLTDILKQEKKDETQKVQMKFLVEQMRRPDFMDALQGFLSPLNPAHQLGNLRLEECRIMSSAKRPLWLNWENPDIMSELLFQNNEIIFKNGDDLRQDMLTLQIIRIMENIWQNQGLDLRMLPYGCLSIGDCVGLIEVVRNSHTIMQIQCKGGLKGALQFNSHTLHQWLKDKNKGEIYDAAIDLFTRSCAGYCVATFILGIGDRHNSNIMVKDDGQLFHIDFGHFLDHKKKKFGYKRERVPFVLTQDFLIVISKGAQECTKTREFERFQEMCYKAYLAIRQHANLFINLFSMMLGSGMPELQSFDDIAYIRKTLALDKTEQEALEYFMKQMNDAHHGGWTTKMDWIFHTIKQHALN

For `COc1ccc(-c2ccc3ncc4c(c3c2)n(-c2ncccc2C)c(=O)n4C)cc1OC` [Example 3.10, 8-(3,4-Dimethoxy-phenyl)-3-methyl-1-(3-methyl-pyridin-2-yl)-1,3-dihydro-imidazo[4,5-c]quinolin-2-one], the solubility thermodynamic in series [1] worked out at 0.195 mg/mL (≈ 457 µM). Besides, the “HT-perm/logPe pH6.8” value in series [2] was −3.8. The IC50 at PI3K alfa is 0.057 µM; at PI3K delta it was 0.151 µM.
With `Cc1cccnc1-n1c(=O)n(C)c2cnc3ccc(-c4cnc(N)c(C(F)(F)F)c4)cc3c21` [Example 3.12, 8-(6-Amino-5-trifluoromethyl-pyridin-3-yl)-3-methyl-1-(3-methyl-pyridin-2-yl)-1,3-dihydro-imidazo[4,5-c]quinolin-2-one], in series [1], the solubility thermodynamic was found to be 0.012 mg/mL (≈ 26.6 µM). Moreover, the “HT-perm/logPe pH6.8” value in series [2] is reported as −4.0. Further, the IC50 on PI3K alfa was 0.016 µM; on PI3K delta, 0.021 µM.
As for `Cc1ccncc1-n1c(=O)n(C)c2cnc3ccc(-c4ccc(CO)nc4)cc3c21` [Example 4.1, 8-(6-Hydroxymethyl-pyridin-3-yl)-3-methyl-1-(4-methyl-pyridin-3-yl)-1,3-dihydro-imidazo[4,5-c]quinolin-2-one], the solubility thermodynamic in series [1] was found to be 0.075 mg/mL (≈ 189 µM). Moreover, the “HT-perm/logPe pH6.8” value in series [2] is −6.1. Further, the IC50 stood at 0.23 µM at PI3K alfa and 0.406 µM on PI3K delta.
In the same order, the values of `CCOc1ccc(-c2ccc3ncc4c(c3c2)n(-c2cnccc2C)c(=O)n4C)cn1` [Example 4.2, 8-(6-Ethoxy-pyridin-3-yl)-3-methyl-1-(4-methyl-pyridin-3-yl)-1,3-dihydro-imidazo[4,5-c]quinolin-2-one] are 0.05 mg/mL (≈ 122 µM), −3.5, 0.206 µM and 0.401 µM.
In the same order, the values of `COc1ccc(-c2ccc3ncc4c(c3c2)n(-c2cnccc2C)c(=O)n4C)cn1` [Example 4.3, 8-(6-Methoxy-pyridin-3-yl)-3-methyl-1-(4-methyl-pyridin-3-yl)-1,3-dihydro-imidazo[4,5-c]quinolin-2-one] are 0.129 mg/mL (≈ 325 µM), −3.7, 0.073 µM and 0.12 µM.
In the same order, the values of `CN(C)c1ccc(-c2ccc3ncc4c(c3c2)n(-c2cccnc2)c(=O)n4C)cn1` [Example 5.3, 8-(6-Dimethylamino-pyridin-3-yl)-3-methyl-1-pyridin-3-yl-1,3-dihydro-imidazo[4,5-c]quinolin-2-one] are 0.004 mg/mL (≈ 10.1 µM), −3.9, 0.047 µM and 0.193 µM.
`CCOc1ccc(-c2ccc3ncc4c(c3c2)n(-c2cccnc2F)c(=O)n4C)cn1` [Example 6.1, 8-(6-Ethoxy-pyridin-3-yl)-1-(2-fluoro-pyridin-3-yl)-3-methyl-1,3-dihydro-imidazo[4,5-c]quinolin-2-one]: the solubility thermodynamic in series [1] amounted to 0.002 mg/mL (≈ 4.81 µM). Moreover, the “HT-perm/logPe pH6.8” value in series [2] is on record as −3.9. The IC50 on PI3K alfa is 0.021 µM; at PI3K delta it was 0.064 µM.
Regarding `Cn1c(=O)n(-c2cccnc2F)c2c3cc(-c4cnc(N)c(C(F)(F)F)c4)ccc3ncc21` [Example 6.2, 8-(6-Amino-5-trifluoromethyl-pyridin-3-yl)-1-(2-fluoro-pyridin-3-yl)-3-methyl-1,3-dihydro-imidazo[4,5-c]quinolin-2-one], the solubility thermodynamic in series [1] came to 0.006 mg/mL (≈ 13.2 µM). For the same compound, the “HT-perm/logPe pH6.8” value in series [2] is recorded as −3.8. Moreover, the IC50 amounted to 0.009 µM on PI3K alfa and 0.012 µM on PI3K delta.
In the same order, the values of `Cc1nc(F)ccc1-n1c(=O)n(C)c2cnc3ccc(-c4cnc(N)c(C(F)(F)F)c4)cc3c21` [Example 7.1, 8-(6-Amino-5-trifluoromethyl-pyridin-3-yl)-1-(6-fluoro-2-methyl-pyridin-3-yl)-3-methyl-1,3-dihydro-imidazo[4,5-c]quinolin-2-one] are 0.047 mg/mL (≈ 100 µM), −3.8, 0.004 µM and 0.005 µM.
